Experimental data as given in ChEMBL document CHEMBL1142848, “Synthesis and antibacterial activity of N-(5-benzylthio-1,3,4-thiadiazol-2-yl) and N-(5-benzylsulfonyl-1,3,4-thiadiazol-2-yl)piperazinyl quinolone derivatives” (2005).
In brackets after ≈: the same amount, converted by molar mass.

How the values were obtained:
Type in all cases: functional
[1] = tested on: Escherichia coli; assay: Minimum inhibitory concentration against Escherichia coli
[2] = tested on: Bacillus subtilis; assay: Minimum inhibitory concentration against Bacillus subtilis
[3] = tested on: Klebsiella pneumoniae; assay: Minimum inhibitory concentration against Klebsiella pneumoniae
[4] = tested on: Pseudomonas aeruginosa; assay: Minimum inhibitory concentration against Pseudomonas aeruginosa
[5] = tested on: Staphylococcus aureus; assay: Minimum inhibitory concentration against Staphylococcus aureus
[6] = tested on: Staphylococcus epidermidis; assay: Minimum inhibitory concentration against Staphylococcus epidermidis

MIC [1] [µg/mL] | MIC [2] [µg/mL] | MIC [3] [µg/mL] | MIC [4] [µg/mL] | MIC [5] [µg/mL] | MIC [6] [µg/mL] | SMILES
> 64 | 1 (≈ 1.63 µM) | 64 (≈ 104 µM) | > 64 | 8 (≈ 13 µM) | 2 (≈ 3.25 µM) | O=C(O)c1cn(C2CC2)c2cc(N3CCN(c4nnc(S(=O)(=O)Cc5ccc([N+](=O)[O-])cc5)s4)CC3)c(F)cc2c1=O
> 64 | 8 (≈ 14.3 µM) | > 64 | > 64 | 64 (≈ 115 µM) | 16 (≈ 28.7 µM) | CCn1cc(C(=O)O)c(=O)c2cc(F)c(N3CCN(c4nnc(S(=O)(=O)Cc5ccccc5)s4)CC3)cc21
1 (≈ 1.63 µM) | 1 (≈ 1.63 µM) | 4 (≈ 6.51 µM) | > 32 | 4 (≈ 6.51 µM) | 0.03 (≈ 0.0488 µM) | O=C(O)c1cn(C2CC2)c2cc(N3CCN(c4nnc(S(=O)(=O)Cc5ccccc5[N+](=O)[O-])s4)CC3)c(F)cc2c1=O
2 (≈ 3.43 µM) | 4 (≈ 6.87 µM) | 2 (≈ 3.43 µM) | 64 (≈ 110 µM) | 0.5 (≈ 0.858 µM) | 0.06 (≈ 0.103 µM) | O=C(O)c1cn(C2CC2)c2cc(N3CCN(c4nnc(SCc5cccc([N+](=O)[O-])c5)s4)CC3)c(F)cc2c1=O
32 (≈ 53.1 µM) | 16 (≈ 26.6 µM) | 64 (≈ 106 µM) | > 64 | > 64 | > 64 | CCn1cc(C(=O)O)c(=O)c2cc(F)c(N3CCN(c4nnc(S(=O)(=O)Cc5ccccc5[N+](=O)[O-])s4)CC3)cc21
32 (≈ 56.1 µM) | 2 (≈ 3.5 µM) | 64 (≈ 112 µM) | > 64 | 4 (≈ 7.01 µM) | 0.5 (≈ 0.876 µM) | CCn1cc(C(=O)O)c(=O)c2cc(F)c(N3CCN(c4nnc(SCc5ccc([N+](=O)[O-])cc5)s4)CC3)cc21
16 (≈ 29.8 µM) | 4 (≈ 7.44 µM) | 32 (≈ 59.5 µM) | > 64 | 2 (≈ 3.72 µM) | 1 (≈ 1.86 µM) | O=C(O)c1cn(C2CC2)c2cc(N3CCN(c4nnc(SCc5ccccc5)s4)CC3)c(F)cc2c1=O
> 64 | 4 (≈ 7.02 µM) | > 64 | > 64 | 16 (≈ 28.1 µM) | 4 (≈ 7.02 µM) | O=C(O)c1cn(C2CC2)c2cc(N3CCN(c4nnc(S(=O)(=O)Cc5ccccc5)s4)CC3)c(F)cc2c1=O
> 64 | 64 (≈ 106 µM) | > 64 | > 64 | > 64 | 64 (≈ 106 µM) | CCn1cc(C(=O)O)c(=O)c2cc(F)c(N3CCN(c4nnc(S(=O)(=O)Cc5cccc([N+](=O)[O-])c5)s4)CC3)cc21

The next lines start with the compound.

SMILES | MIC [1] [µg/mL] | MIC [2] [µg/mL] | MIC [3] [µg/mL] | MIC [4] [µg/mL] | MIC [5] [µg/mL] | MIC [6] [µg/mL]
O=C(O)c1cn(C2CC2)c2cc(N3CCN(c4nnc(SCc5ccc([N+](=O)[O-])cc5)s4)CC3)c(F)cc2c1=O | 1 (≈ 1.72 µM) | 0.5 (≈ 0.858 µM) | 2 (≈ 3.43 µM) | 32 (≈ 54.9 µM) | 0.5 (≈ 0.858 µM) | 0.03 (≈ 0.0515 µM)
O=C(O)c1cn(C2CC2)c2cc(N3CCN(c4nnc(S(=O)(=O)Cc5cccc([N+](=O)[O-])c5)s4)CC3)c(F)cc2c1=O | 8 (≈ 13 µM) | 8 (≈ 13 µM) | 16 (≈ 26 µM) | > 64 | 1 (≈ 1.63 µM) | 0.05 (≈ 0.0813 µM)
CCn1cc(C(=O)O)c(=O)c2cc(F)c(N3CCN(c4nnc(SCc5ccccc5)s4)CC3)cc21 | 16 (≈ 30.4 µM) | 8 (≈ 15.2 µM) | 16 (≈ 30.4 µM) | > 64 | 16 (≈ 30.4 µM) | 2 (≈ 3.8 µM)
O=C(O)c1cn(C2CC2)c2cc(N3CCN(c4nnc(SCc5ccccc5[N+](=O)[O-])s4)CC3)c(F)cc2c1=O | 2 (≈ 3.43 µM) | 4 (≈ 6.87 µM) | 16 (≈ 27.5 µM) | 64 (≈ 110 µM) | 2 (≈ 3.43 µM) | 0.06 (≈ 0.103 µM)
CCn1cc(C(=O)O)c(=O)c2cc(F)c(N3CCN(c4nnc(S(=O)(=O)Cc5ccc([N+](=O)[O-])cc5)s4)CC3)cc21 | > 64 | 32 (≈ 53.1 µM) | > 64 | > 64 | 64 (≈ 106 µM) | 8 (≈ 13.3 µM)
CCn1cc(C(=O)O)c(=O)c2cc(F)c(N3CCN(c4nnc(SCc5ccccc5[N+](=O)[O-])s4)CC3)cc21 | 16 (≈ 28 µM) | 8 (≈ 14 µM) | 32 (≈ 56.1 µM) | > 64 | 4 (≈ 7.01 µM) | 0.5 (≈ 0.876 µM)
CCn1cc(C(=O)O)c(=O)c2cc(F)c(N3CCN(c4nnc(SCc5cccc([N+](=O)[O-])c5)s4)CC3)cc21 | 16 (≈ 28 µM) | 8 (≈ 14 µM) | 16 (≈ 28 µM) | > 64 | 2 (≈ 3.5 µM) | 0.25 (≈ 0.438 µM)
O=C(O)c1cn(C2CC2)c2cc(N3CCNCC3)c(F)cc2c1=O [CIPROFLOXACIN] |  | 0.015 (≈ 0.0453 µM) | 0.06 (≈ 0.181 µM) |  | 0.5 (≈ 1.51 µM) | 0.25 (≈ 0.754 µM)
CCn1cc(C(=O)O)c(=O)c2cc(F)c(N3CCNCC3)cc21 [NORFLOXACIN] | 0.25 (≈ 0.783 µM) | 0.06 (≈ 0.188 µM) | 0.25 (≈ 0.783 µM) | 2 (≈ 6.26 µM) | 1 (≈ 3.13 µM) | 0.5 (≈ 1.57 µM)
